Data reported in publication PMC9402538, “Rational design of a sensitivity-enhanced tracer for discovering efficient APC–Asef inhibitors” (Nature Communications, 2022).
Where a SMILES comes first, the peptide text is derived from it. The star is where a group is joined. Bz = O=C(c1ccccc1)*

Target: T1, APC (303–739) (Homo sapiens, UniProt P25054)
T1 sequence (P25054 303-739): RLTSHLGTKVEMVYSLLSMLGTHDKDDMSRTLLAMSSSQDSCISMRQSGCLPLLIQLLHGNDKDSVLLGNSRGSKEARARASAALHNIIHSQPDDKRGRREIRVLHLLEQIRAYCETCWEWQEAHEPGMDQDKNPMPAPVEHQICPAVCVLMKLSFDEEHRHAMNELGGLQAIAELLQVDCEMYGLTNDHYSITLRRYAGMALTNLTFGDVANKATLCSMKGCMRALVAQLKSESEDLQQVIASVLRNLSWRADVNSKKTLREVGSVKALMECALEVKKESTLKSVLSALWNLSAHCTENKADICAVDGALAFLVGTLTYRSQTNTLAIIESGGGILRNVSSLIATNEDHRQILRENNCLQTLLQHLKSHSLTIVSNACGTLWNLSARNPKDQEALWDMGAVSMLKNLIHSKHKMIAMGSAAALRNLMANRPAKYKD
Experiment: FP competitive assay using tracer 7
Format: binding
Conditions: for IC50: Table 3 source data
Procedure, shortened: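 Fluorescence polarization competition: APC (303–739) in 50 mM HEPES pH 7.5, 300 mM NaCl, 1 mM EDTA, 1 mM DTT, preincubated 1 h at room temperature with serially diluted peptides. FITC tracer 7 then added (400 nM stock) and FP read after 1.5 h at room temperature; IC50 by nonlinear regression, triplicates.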

CC(C)C[C@H](NC(=O)[C@H](CO)NC(=O)[C@H](CCC(=O)O)NC(=O)CNC(=O)[C@H](C)NC(=O)c1ccccc1)C(=O)N[C@@H](Cc1ccc(O)cc1)C(=O)N[C@@H](CCC(=O)O)C(N)=O [MAI-511] (Bz-AGESLYE-NH2)
inhibition at 0.0002 µM (Conc. 0.0002 μM, individual repeats, Fig3b): 1.5% | inhibition at 0.0005 µM (Conc. 0.0005 μM, individual repeats, Fig3b): 1.2% | inhibition at 0.001 µM (Conc. 0.001 μM, individual repeats, Fig3b): 1.9% | inhibition at 0.002 µM (Conc. 0.002 μM, individual repeats, Fig3b): 1.5% | inhibition at 0.0024 µM (Conc. 0.0024 μM, individual repeats, Fig3b): 1.1% | inhibition at 0.0039 µM (Conc. 0.0039 μM, individual repeats, Fig3b): 2.5% | inhibition at 0.0049 µM (Conc. 0.0049 μM, individual repeats, Fig3b): 1.1% | inhibition at 0.006 µM (Conc. 0.006 μM, individual repeats, Fig3b): 4.7% | inhibition at 0.0078 µM (Conc. 0.0078 μM, individual repeats, Fig3b): 5.3% | inhibition at 0.0098 µM (Conc. 0.0098 μM, individual repeats, Fig3b): 6.1% | inhibition at 0.012 µM (Conc. 0.012 μM, individual repeats, Fig3b): 7.9% | inhibition at 0.0156 µM (Conc. 0.0156 μM, individual repeats, Fig3b): 8.5% | inhibition at 0.0195 µM (Conc. 0.0195 μM, individual repeats, Fig3b): 11.3% | inhibition at 0.024 µM (Conc. 0.024 μM, individual repeats, Fig3b): 16.8% | inhibition at 0.0313 µM (Conc. 0.0313 μM, individual repeats, Fig3b): 22.7% | inhibition at 0.0391 µM (Conc. 0.0391 μM, individual repeats, Fig3b): 22.5% | inhibition at 0.049 µM (Conc. 0.049 μM, individual repeats, Fig3b): 31.3% | inhibition at 0.0625 µM (Conc. 0.0625 μM, individual repeats, Fig3b): 39% | inhibition at 0.0781 µM (Conc. 0.0781 μM, individual repeats, Fig3b): 39.5% | inhibition at 0.098 µM (Conc. 0.098 μM, individual repeats, Fig3b): 49% | inhibition at 0.125 µM (Conc. 0.125 μM, individual repeats, Fig3b): 56.2% | inhibition at 0.1563 µM (Conc. 0.1563 μM, individual repeats, Fig3b): 58.3% | inhibition at 0.195 µM (Conc. 0.195 μM, individual repeats, Fig3b): 67.3% | inhibition at 0.25 µM (Conc. 0.25 μM, individual repeats, Fig3b): 72.5% | inhibition at 0.3125 µM (Conc. 0.3125 μM, individual repeats, Fig3b): 72.1% | inhibition at 0.391 µM (Conc. 0.391 μM, individual repeats, Fig3b): 80.1% | inhibition at 0.5 µM (Conc. 0.5 μM, individual repeats, Fig3b): 83.2% | inhibition at 0.625 µM (Conc. 0.625 μM, individual repeats, Fig3b): 82.5% | inhibition at 0.781 µM (Conc. 0.781 μM, individual repeats, Fig3b): 86.3% | inhibition at 1 µM (Conc. 1 μM, individual repeats, Fig3b): 90.6% | inhibition at 1.25 µM (Conc. 1.25 μM, individual repeats, Fig3b): 89.5% | inhibition at 1.563 µM (Conc. 1.563 μM, individual repeats, Fig3b): 91.5% | inhibition at 2 µM (Conc. 2 μM, individual repeats, Fig3b): 95.4% | inhibition at 2.5 µM (Conc. 2.5 μM, individual repeats, Fig3b): 93.6% | inhibition at 3.125 µM (Conc. 3.125 μM, individual repeats, Fig3b): 93.5% | inhibition at 5 µM (Conc. 5 μM, individual repeats, Fig3b): 95.7% | inhibition at 6.25 µM (Conc. 6.25 μM, individual repeats, Fig3b): 94.1% | inhibition at 10 µM (Conc. 10 μM, individual repeats, Fig3b): 96.6% | inhibition at 12.5 µM (Conc. 12.5 μM, individual repeats, Fig3b): 95% | inhibition at 20 µM (Conc. 20 μM, individual repeats, Fig3b): 97.1% | inhibition at 25 µM (Conc. 25 μM, individual repeats, Fig3b): 95.6% | inhibition at 50 µM (Conc. 50 μM, individual repeats, Fig3b): 94.9% | IC50 (IC50(μM) Repeat 1, Repeat 1): 0.0848 µM | IC50 (IC50(μM) Repeat 2, Repeat 2): 0.102 µM | IC50 (IC50(μM) Repeat 3, Repeat 3): 0.108 µM | IC50 (IC50(μM) mean, mean of 3 repeats): 0.0984 µM | mean (FP signal, FigS5) (Repeat 1, Conc. 0.0024 μM): 300.7 | mean (FP signal, FigS5) (Repeat 1, Conc. 0.0049 μM): 300.5 | mean (FP signal, FigS5) (Repeat 1, Conc. 0.0098 μM): 288 | mean (FP signal, FigS5) (Repeat 1, Conc. 0.0195 μM): 274.7 | mean (FP signal, FigS5) (Repeat 1, Conc. 0.0391 μM): 246.3 | mean (FP signal, FigS5) (Repeat 1, Conc. 0.0781 μM): 203.3 | mean (FP signal, FigS5) (Repeat 1, Conc. 0.1563 μM): 155.7 | mean (FP signal, FigS5) (Repeat 1, Conc. 0.3125 μM): 120.7 | mean (FP signal, FigS5) (Repeat 1, Conc. 0.625 μM): 94.3 | mean (FP signal, FigS5) (Repeat 1, Conc. 1.25 μM): 76.7 | mean (FP signal, FigS5) (Repeat 1, Conc. 2.5 μM): 66.3 | mean (FP signal, FigS5) (Repeat 1, Conc. 5 μM): 61 | mean (FP signal, FigS5) (Repeat 1, Conc. 10 μM): 58.7 | mean (FP signal, FigS5) (Repeat 1, Conc. 20 μM): 57.3 | mean (FP signal, FigS5) (Repeat 2, Conc. 0.0002 μM): 300.7 | mean (FP signal, FigS5) (Repeat 2, Conc. 0.0005 μM): 301.3 | mean (FP signal, FigS5) (Repeat 2, Conc. 0.001 μM): 299.7 | mean (FP signal, FigS5) (Repeat 2, Conc. 0.002 μM): 300.7 | mean (FP signal, FigS5) (Repeat 2, Conc. 0.0039 μM): 298 | mean (FP signal, FigS5) (Repeat 2, Conc. 0.0078 μM): 291 | mean (FP signal, FigS5) (Repeat 2, Conc. 0.0156 μM): 283 | mean (FP signal, FigS5) (Repeat 2, Conc. 0.0313 μM): 247.3 | mean (FP signal, FigS5) (Repeat 2, Conc. 0.0625 μM): 206.3 | mean (FP signal, FigS5) (Repeat 2, Conc. 0.125 μM): 163 | mean (FP signal, FigS5) (Repeat 2, Conc. 0.25 μM): 122 | mean (FP signal, FigS5) (Repeat 2, Conc. 0.5 μM): 95.3 | mean (FP signal, FigS5) (Repeat 2, Conc. 1 μM): 76.7 | mean (FP signal, FigS5) (Repeat 2, Conc. 2 μM): 64.7 | mean (FP signal, FigS5) (Repeat 3, Conc. 0.006 μM): 301.3 | mean (FP signal, FigS5) (Repeat 3, Conc. 0.012 μM): 293 | mean (FP signal, FigS5) (Repeat 3, Conc. 0.024 μM): 270 | mean (FP signal, FigS5) (Repeat 3, Conc. 0.049 μM): 232.3 | mean (FP signal, FigS5) (Repeat 3, Conc. 0.098 μM): 186.3 | mean (FP signal, FigS5) (Repeat 3, Conc. 0.195 μM): 138.7 | mean (FP signal, FigS5) (Repeat 3, Conc. 0.391 μM): 105.3 | mean (FP signal, FigS5) (Repeat 3, Conc. 0.781 μM): 89.3 | mean (FP signal, FigS5) (Repeat 3, Conc. 1.563 μM): 75.7 | mean (FP signal, FigS5) (Repeat 3, Conc. 3.125 μM): 70.7 | mean (FP signal, FigS5) (Repeat 3, Conc. 6.25 μM): 69 | mean (FP signal, FigS5) (Repeat 3, Conc. 12.5 μM): 66.7 | mean (FP signal, FigS5) (Repeat 3, Conc. 25 μM): 65 | mean (FP signal, FigS5) (Repeat 3, Conc. 50 μM): 67
